Reference: US20120115774A1, “ANTIMICROBIAL CATIONIC LIPO-BETA-PEPTIDES” (UNIVERSITY OF MANITOBA, priority 2009, published 2012)
≈ marks a conversion by molar mass, not a printed value. Where two headings read alike, the source gives them in different places.

Experiments:
[1] = tested on: E. coli (Amikacin MIC 32 μg/mL) CAN-ICU 63074; conditions: strain description, clinical isolate of CAN-ICU study; cited from earlier work
S. aureus ATCC 29213 = type: cell-based, Staphylococcus aureus
Protocol: (§1) Antibacterial activity against Gram positive and Gram negative microorganisms was investigated via broth macrodilution tests using CLSI methodology (Zhanel et al., 2008). Stock solutions of lipopeptide antibiotics in water were brought to a standard 512 μg/mL, with only βC12-KLLK and βC16-KAAK requiring a minute amount of DMSO. Organisms were subcultured and isolated on blood agar, suspended in 3 mL of Mueller-Hinton broth at the turbidity of a […], and diluted to approximately 10^5 CFU/mL before introduction into tubes containing serially diluted lipopeptide antibiotic in Mueller-Hinton broth. Activity testing against S. pneumoniae used broth supplemented with laked horse blood to give 5% horse blood in experimental tubes. The turbidity resulting from lipopeptide solution in broth required the creation of control tubes lacking microbes serving as turbidity controls. All tubes were incubated overnight for 16-20 h at 37° C. Colony counts of diluted 10^5 CFU/mL solution of microorganism confirmed the validity of the trial with colony counts expected in the 10^5 CFU/mL range and also incubated overnight in a CO2 incubator at 37° C. and 5% CO2.

E. faecalis ATCC 29212 = type: cell-based, Enterococcus faecalis
Protocol: as §1

[2] = tested on: S. epidermidis ATCC 14990; type: cell-based, Staphylococcus epidermidis
Protocol: as §1

E. faecium ATCC 27270 = type: cell-based, Enterococcus faecium
Protocol: as §1

[3] = tested on: S. maltophilia CAN-ICU 62584; type: cell-based, Stenotrophomonas maltophilia
Protocol: as §1

P. aeruginosa ATCC 27853 = type: cell-based, Pseudomonas aeruginosa
Protocol: as §1

[4] = tested on: P. aeruginosa (Gent-R) CAN-ICU 62308; type: cell-based, Pseudomonas aeruginosa
Protocol: as §1

[5] = tested on: E. coli (Gentamicin resistant-Gent R) CAN-ICU 61714; type: cell-based
Protocol: as §1

[6] = tested on: E. coli (Amikacin MIC 32 μg/mL) CAN-ICU 63074; type: cell-based
Protocol: as §1

E. coli ATCC 25922 = type: cell-based
Protocol: as §1

[7] = tested on: methicillin-resistant Staphylococcus aureus (MRSA) ATCC 33592; type: cell-based
Protocol: as §1

[8] = tested on: methicillin-resistant Staphylococcus epidermidis (MRSE) CAN-ICU 61589; type: cell-based
Protocol: as §1

[9] = tested on: A. baumannii CAN-ICU 63169; type: cell-based, Acinetobacter baumannii
Protocol: as §1

S. pneumoniae ATCC 49619 = type: cell-based, Streptococcus pneumoniae
Protocol: as §1

[10] = tested on: methicillin-resistant Staphylococcus epidermidis (MRSE) CAN-ICU 61589; conditions: strain description, clinical isolate of CAN-ICU study; cited from earlier work
K. pneumoniae ATCC 13883 = type: cell-based, Klebsiella pneumoniae; conditions: Mueller-Hinton broth, 16-20 h at 37° C.
Protocol: as §1

[11] = Gentamicin resistant-Gent R) CAN-ICU 61714
[12] = Amikacin MIC 32 μg/mL) CAN-ICU 63074
[13] = methicillin-resistant CAN-ICU 61589
[14] = Mueller-Hinton broth, 16-20 h at 37° C.

NCC[C@H](O)C(=O)N[C@@H]1C[C@H](N)[C@@H](O[C@H]2O[C@H](CN)[C@@H](O)[C@H](O)[C@H]2O)[C@H](O)[C@H]1O[C@H]1O[C@H](CO)[C@@H](O)[C@H](N)[C@H]1O [Amikacin]
Amikacin MIC of E. coli CAN-ICU 63074 [1]: 32 µg/mL

CCCCCCCCCCCCCCCC(=O)N[C@@H](CCCCN)CC(=O)NCCC(=O)NCCC(=O)N[C@@H](CCCCN)CC(N)=O [(β)C16-KGGK]
MIC, S. aureus ATCC29213 (S. aureus ATCC 29213; ATCC 29213): 16 µg/mL (≈ 23.5 µM) | MIC, E. faecalis ATCC29212 (E. faecalis ATCC 29212): 32 µg/mL (≈ 46.9 µM) | MIC, S. epidermidis ATCC14990 ([2]; ATCC 14990): 8 µg/mL (≈ 11.7 µM) | MIC, E. facium ATCC27270 (E. faecium ATCC 27270): 32 µg/mL (≈ 46.9 µM) | MIC, S. maltophilia CAN-ICU 62584 ([3]; CAN-ICU 62584): 256 µg/mL (≈ 375 µM) | MIC, P. aeruginosa ATCC27853 (P. aeruginosa ATCC 27853; ATCC 27853): 64 µg/mL (≈ 93.8 µM) | MIC, P. aeruginosa CAN-ICU 62308 ([4]; Gent-R) CAN-ICU 62308): >64 µg/mL | MIC, E. coli CAN-ICU 61714 [5, 11]: 32 µg/mL (≈ 46.9 µM) | MIC, E. coli CAN-ICU 63074 [6, 12]: 32 µg/mL (≈ 46.9 µM) | MIC, E. coli ATCC25922 (E. coli ATCC 25922; ATCC 25922): 32 µg/mL (≈ 46.9 µM) | MIC, MRSA ATCC33592 ([7]; ATCC 33592): 32 µg/mL (≈ 46.9 µM) | MIC, MRSE CAN-ICU 61589 [8, 13]: 16 µg/mL (≈ 23.5 µM) | MIC, A. baumannii CAN-ICU 63169 ([9]; CAN-ICU 63169): 128 µg/mL (≈ 188 µM) | MIC, S. pneumoniae ATCC49619 (S. pneumoniae ATCC 49619; ATCC 49619): 128 µg/mL (≈ 188 µM)

CCCCCCCCCCCC(=O)N[C@@H](CCCCN)CC(=O)N[C@H](CC(=O)N[C@H](CC(=O)N[C@@H](CCCCN)CC(N)=O)CC(C)C)CC(C)C [(β)C12-KLLK]
MIC, S. aureus ATCC29213 (S. aureus ATCC 29213; ATCC 29213): 32 µg/mL (≈ 43.4 µM) | MIC, E. faecalis ATCC29212 (E. faecalis ATCC 29212): 64 µg/mL (≈ 86.7 µM) | MIC, S. epidermidis ATCC14990 ([2]; ATCC 14990): 16 µg/mL (≈ 21.7 µM) | MIC, E. facium ATCC27270 (E. faecium ATCC 27270): 32 µg/mL (≈ 43.4 µM) | MIC, S. maltophilia CAN-ICU 62584 ([3]; CAN-ICU 62584): 256 µg/mL (≈ 347 µM) | MIC, P. aeruginosa ATCC27853 (P. aeruginosa ATCC 27853; ATCC 27853): 128 µg/mL (≈ 173 µM) | MIC, P. aeruginosa CAN-ICU 62308 ([4]; Gent-R) CAN-ICU 62308): 128 µg/mL (≈ 173 µM) | MIC, E. coli CAN-ICU 61714 [5, 11]: 64 µg/mL (≈ 86.7 µM) | MIC, E. coli CAN-ICU 63074 [6, 12]: 64 µg/mL (≈ 86.7 µM) | MIC, E. coli ATCC25922 (E. coli ATCC 25922; ATCC 25922): 64 µg/mL (≈ 86.7 µM) | MIC, MRSA ATCC33592 ([7]; ATCC 33592): 32 µg/mL (≈ 43.4 µM) | MIC, MRSE CAN-ICU 61589 [8, 13]: 32 µg/mL (≈ 43.4 µM) | MIC, A. baumannii CAN-ICU 63169 ([9]; CAN-ICU 63169): >128 µg/mL | MIC, S. pneumoniae ATCC49619 (S. pneumoniae ATCC 49619; ATCC 49619): 128 µg/mL (≈ 173 µM)

Cc1nnc(SCC2=C(C(=O)O)N3C(=O)[C@@H](NC(=O)Cn4cnnn4)[C@H]3SC2)s1 [Cefazolin]
Cefazolin-CZ MIC of MRSE CAN-ICU 61589 [10]: > 32 µg/mL

CCCCCCCCCCCCCCCC(=O)N[C@@H](CCCCN)CC(=O)N[C@@H](CCCCN)CC(=O)N[C@@H](CCCCN)CC(=O)N[C@@H](CCCCN)CC(N)=O [(β)C16-KKKK]
MIC, S. aureus ATCC29213 (S. aureus ATCC 29213; ATCC 29213): 16 µg/mL (≈ 19.4 µM) | MIC, E. faecalis ATCC29212 (E. faecalis ATCC 29212): 32 µg/mL (≈ 38.8 µM) | MIC, S. epidermidis ATCC14990 ([2]; ATCC 14990): 4 µg/mL (≈ 4.85 µM) | MIC, E. facium ATCC27270 (E. faecium ATCC 27270): 16 µg/mL (≈ 19.4 µM) | MIC, S. maltophilia CAN-ICU 62584 ([3]; CAN-ICU 62584): 256 µg/mL (≈ 311 µM) | MIC, P. aeruginosa ATCC27853 (P. aeruginosa ATCC 27853; ATCC 27853): 64 µg/mL (≈ 77.6 µM) | MIC, P. aeruginosa CAN-ICU 62308 ([4]; Gent-R) CAN-ICU 62308): 128 µg/mL (≈ 155 µM) | MIC, E. coli CAN-ICU 61714 [5, 11]: 32 µg/mL (≈ 38.8 µM) | MIC, E. coli CAN-ICU 63074 [6, 12]: 32 µg/mL (≈ 38.8 µM) | MIC, E. coli ATCC25922 (E. coli ATCC 25922; ATCC 25922): 16 µg/mL (≈ 19.4 µM) | MIC, MRSA ATCC33592 ([7]; ATCC 33592): 16 µg/mL (≈ 19.4 µM) | MIC, MRSE CAN-ICU 61589 [8, 13]: 4 µg/mL (≈ 4.85 µM) | MIC, A. baumannii CAN-ICU 63169 ([9]; CAN-ICU 63169): 256 µg/mL (≈ 311 µM) | MIC, S. pneumoniae ATCC49619 (S. pneumoniae ATCC 49619; ATCC 49619): 128 µg/mL (≈ 155 µM)

CCCCCCCCCCCCCCCC(=O)N[C@@H](CCCCN)CC(=O)N[C@@H](C)CC(=O)N[C@@H](C)CC(=O)N[C@@H](CCCCN)CC(N)=O [(β)C16-KAAK]
MIC, S. aureus ATCC29213 (S. aureus ATCC 29213; ATCC 29213): 64 µg/mL (≈ 90.1 µM) | MIC, E. faecalis ATCC29212 (E. faecalis ATCC 29212): 32 µg/mL (≈ 45.1 µM) | MIC, S. epidermidis ATCC14990 ([2]; ATCC 14990): 8 µg/mL (≈ 11.3 µM) | MIC, E. facium ATCC27270 (E. faecium ATCC 27270): 32 µg/mL (≈ 45.1 µM) | MIC, S. maltophilia CAN-ICU 62584 ([3]; CAN-ICU 62584): >128 µg/mL | MIC, P. aeruginosa ATCC27853 (P. aeruginosa ATCC 27853; ATCC 27853): 256 µg/mL (≈ 361 µM) | MIC, P. aeruginosa CAN-ICU 62308 ([4]; Gent-R) CAN-ICU 62308): 128 µg/mL (≈ 180 µM) | MIC, E. coli CAN-ICU 61714 [5, 11]: 64 µg/mL (≈ 90.1 µM) | MIC, E. coli CAN-ICU 63074 [6, 12]: 64 µg/mL (≈ 90.1 µM) | MIC, E. coli ATCC25922 (E. coli ATCC 25922; ATCC 25922): 64 µg/mL (≈ 90.1 µM) | MIC, MRSA ATCC33592 ([7]; ATCC 33592): 32 µg/mL (≈ 45.1 µM) | MIC, MRSE CAN-ICU 61589 [8, 13]: 16 µg/mL (≈ 22.5 µM) | MIC, A. baumannii CAN-ICU 63169 ([9]; CAN-ICU 63169): 256 µg/mL (≈ 361 µM) | MIC, S. pneumoniae ATCC49619 (S. pneumoniae ATCC 49619; ATCC 49619): >64 µg/mL

Gentamicin [reference compound]
MIC, S. aureus ATCC29213 (S. aureus ATCC 29213; [14]): 1 µg/mL | MIC, S. epidermidis ATCC14990 [2, 14]: 0.25 µg/mL | MIC, S. maltophilia CAN-ICU 62584 [3, 14]: >512 µg/mL | MIC, S. pneumoniae ATCC13883 (K. pneumoniae ATCC 13883): 0.25 µg/mL | MIC, P. aeruginosa ATCC27853 (P. aeruginosa ATCC 27853; [14]): 8 µg/mL | MIC, P. aeruginosa CAN-ICU 62308 ([4]; Gent-R strain, Mueller-Hinton broth, 16-20 h at 37° C.): 128 µg/mL | MIC, E. coli CAN-ICU 61714 ([5]; Gentamicin resistant strain, Mueller-Hinton broth, 16-20 h at 37° C.): 128 µg/mL | MIC, E. coli CAN-ICU 63074 [6, 14]: 8 µg/mL | MIC, E. coli ATCC25922 (E. coli ATCC 25922; [14]): 1 µg/mL | MIC, MRSA ATCC33592 [7, 14]: 2 µg/mL | MIC, MRSE CAN-ICU 61589 [8, 14]: 32 µg/mL | MIC, A. baumannii CAN-ICU 63169 [9, 14]: 128 µg/mL | MIC, S. pneumoniae ATCC49619 (S. pneumoniae ATCC 49619; broth supplemented with laked horse blood (5% horse blood), 16-20 h at 37° C.): 4 µg/mL
